In ChEMBL document CHEMBL1201862, “PubChem BioAssay data set” (2004):
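Cultured in 96-well plates, cells were exposed to test compound for 48 hours across five concentrations. GI50 = concentration required for 50% inhibition of growth.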 The source made the active and inactive calls. Cut-off read from the data, not from the text of the source: active = GI50 up to about 1.1 µM and inactive = higher.

Legend:
Experiment in all cases: NCI tumour cell line growth inhibition, 48 h
ACHN = tested on: ACHN
CCRF-CEM = tested on: CCRF-CEM
HCT-116 = tested on: HCT-116
KM12 = tested on: KM12
LOX IMVI = tested on: LOX IMVI
MCF7 = tested on: MCF7
NCI/ADR-RES = tested on: NCI/ADR-RES
OVCAR-3 = tested on: OVCAR-3
OVCAR-4 = tested on: OVCAR-4
RXF 393 = tested on: RXF 393
SF-268 = tested on: SF-268
SF-295 = tested on: SF-295
SK-MEL-2 = tested on: SK-MEL-2
SW-620 = tested on: SW-620
T47D = tested on: T47D
UO-31 = tested on: UO-31
PC-3 = tested on: PC-3
MDA-N = tested on: MDA-N
SR = tested on: SR

| Structure (SMILES) | GI50 (ACHN) | GI50 (CCRF-CEM) | GI50 (HCT-116) | GI50 (KM12) | GI50 (LOX IMVI) | GI50 (MCF7) | GI50 (NCI/ADR-RES) | GI50 (OVCAR-3) | GI50 (OVCAR-4) | GI50 (RXF 393) | GI50 (SF-268) | GI50 (SF-295) | GI50 (SK-MEL-2) | GI50 (SW-620) | GI50 (T47D) | GI50 (UO-31) | GI50 (PC-3) | GI50 (MDA-N) | GI50 (SR) |
| --- | --- | --- | --- | --- | --- | --- | --- | --- | --- | --- | --- | --- | --- | --- | --- | --- | --- | --- | --- |
| CN(Cc1cnc2c(n1)C(N)=NN(N)N2)c1ccc(C(=O)NC(CCP(=O)(O)O)C(=O)O)cc1 (stereo not drawn) | 2.17 µM (inactive) | 0.267 µM (active) | 0.45 µM (active) | 5.14 µM (inactive) | 0.637 µM (active) | 2.18 µM (inactive) | 8.02 µM (inactive) | > 100 µM (inactive) | > 100 µM (inactive) | 6.22 µM (inactive) | 1.21 µM (inactive) | 3.08 µM (inactive) | > 100 µM (inactive) | 1.53 µM (inactive) | > 100 µM (inactive) | > 19.9 µM (inactive) |  |  |  |
| Cc1ccc(O)cc1.Cc1cccc(O)c1.Cc1ccccc1O [CRESOL] | > 100 µM (inactive) | 18.7 µM (inactive) | > 100 µM (inactive) | > 100 µM (inactive) | > 100 µM (inactive) | > 100 µM (inactive) | > 100 µM (inactive) | > 100 µM (inactive) | 89.3 µM (inactive) | > 100 µM (inactive) | > 100 µM (inactive) | > 100 µM (inactive) | > 100 µM (inactive) | > 100 µM (inactive) | > 100 µM (inactive) | > 100 µM (inactive) | 73.3 µM (inactive) |  |  |
| O=C1C2C3C=C4c5ccccc5N(c5ccccc5)C4(C2C(=O)N1c1ccc([N+](=O)[O-])cc1)[C@H]1C(=O)N(c2ccc([N+](=O)[O-])cc2)C(=O)[C@@H]31 (stereo partly drawn) | > 100 µM (inactive) | > 100 µM (inactive) | > 100 µM (inactive) | > 100 µM (inactive) | > 100 µM (inactive) |  |  | > 100 µM (inactive) | > 100 µM (inactive) | > 100 µM (inactive) | > 100 µM (inactive) | > 100 µM (inactive) | > 100 µM (inactive) | > 100 µM (inactive) |  | > 100 µM (inactive) |  |  |  |
| CCOC(CN(C)C(=O)OCC(Cl)(Cl)Cl)OCC | 99.1 µM (inactive) | 56.6 µM (inactive) | 41.5 µM (inactive) | > 100 µM (inactive) | 57.9 µM (inactive) | 67.9 µM (inactive) | 39.4 µM (inactive) | > 100 µM (inactive) | 77.1 µM (inactive) | 30.7 µM (inactive) | > 100 µM (inactive) | > 100 µM (inactive) |  | > 100 µM (inactive) |  | 27.6 µM (inactive) | 23.3 µM (inactive) | 81.3 µM (inactive) | 34.2 µM (inactive) |
| NCCSC(c1ccccc1)c1ccccc1 | 31.8 µM (inactive) | 32.6 µM (inactive) | 16.7 µM (inactive) | 19.7 µM (inactive) | 16.3 µM (inactive) | 19.3 µM (inactive) | 31.3 µM (inactive) | 19.1 µM (inactive) | 20.4 µM (inactive) | 17.7 µM (inactive) | 26.6 µM (inactive) | 18.2 µM (inactive) | 18.4 µM (inactive) | 18.5 µM (inactive) |  | 15 µM (inactive) | 21.8 µM (inactive) | 18.7 µM (inactive) | 17.6 µM (inactive) |
| CCN(CC)c1ccc2cc(C(=O)Nc3ccccn3)c(=N)oc2c1 | 26.9 µM (inactive) | > 100 µM (inactive) | 55.5 µM (inactive) | > 100 µM (inactive) | 71.1 µM (inactive) |  | 85.3 µM (inactive) | > 100 µM (inactive) | > 100 µM (inactive) | 47.9 µM (inactive) | 60.8 µM (inactive) |  | 25.5 µM (inactive) | > 100 µM (inactive) | 99.8 µM (inactive) |  |  | > 100 µM (inactive) | > 100 µM (inactive) |
| CCOP(=O)(OCC)/C(C#N)=C/c1cnc(-c2ccccc2)[nH]1 | > 100 µM (inactive) | > 100 µM (inactive) | > 100 µM (inactive) | > 100 µM (inactive) | > 100 µM (inactive) | > 100 µM (inactive) | > 100 µM (inactive) | > 100 µM (inactive) | > 100 µM (inactive) | > 100 µM (inactive) | > 100 µM (inactive) | > 100 µM (inactive) | > 100 µM (inactive) | > 100 µM (inactive) |  | > 100 µM (inactive) | > 100 µM (inactive) | > 100 µM (inactive) | > 100 µM (inactive) |
| COc1ccc2oc(C(=O)N3CC(CCl)c4ccc([N+](=O)[O-])cc43)cc2c1 (stereo not drawn) | 40.6 µM (inactive) |  | 89.1 µM (inactive) | 0.381 µM (active) | 67 µM (inactive) |  | 17.9 µM (inactive) |  | 15.2 µM (inactive) | 13.4 µM (inactive) | 13.3 µM (inactive) | 13 µM (inactive) | 26.4 µM (inactive) | > 100 µM (inactive) | 53.8 µM (inactive) | 4.45 µM (inactive) | 20.7 µM (inactive) |  | 0.402 µM (active) |
| COc1cc2c(cc1C)NC(=O)/C2=C\c1cccnc1 | 26.9 µM (inactive) | 20.8 µM (inactive) | 15.1 µM (inactive) | 13.6 µM (inactive) | 18.7 µM (inactive) | 11.7 µM (inactive) | 14.1 µM (inactive) | 13.7 µM (inactive) | 18.7 µM (inactive) | 17.4 µM (inactive) | 19.4 µM (inactive) | 14.7 µM (inactive) | 18.7 µM (inactive) | 26.8 µM (inactive) | 3.91 µM (inactive) | 15.6 µM (inactive) | 30.1 µM (inactive) |  |  |
| C=C(C)C1CC/C(C)=C/CC[C@]2(C)O[C@H]2CC/C(COC(C)=O)=C\[C@@H]1O (stereo partly drawn) | > 50 µM (inactive) | 16.3 µM (inactive) | > 50 µM (inactive) | > 50 µM (inactive) |  | > 50 µM (inactive) | 20.7 µM (inactive) | > 50 µM (inactive) | > 50 µM (inactive) | > 50 µM (inactive) | > 50 µM (inactive) | 30.7 µM (inactive) | > 50 µM (inactive) | > 50 µM (inactive) | > 50 µM (inactive) | > 50 µM (inactive) | 22.4 µM (inactive) |  | 34.6 µM (inactive) |
| O=C1NC(O)c2ccccc2O1 (stereo not drawn) | > 100 µM (inactive) | > 100 µM (inactive) | > 100 µM (inactive) | > 100 µM (inactive) | > 100 µM (inactive) | > 100 µM (inactive) | > 100 µM (inactive) | > 100 µM (inactive) | > 100 µM (inactive) | > 100 µM (inactive) | > 100 µM (inactive) | > 100 µM (inactive) | > 100 µM (inactive) | > 100 µM (inactive) |  | > 100 µM (inactive) | > 100 µM (inactive) | > 100 µM (inactive) | > 100 µM (inactive) |
| S=C(Nc1ccccc1)N(/N=C/C=C/c1ccccc1)c1nnc(-c2ccccc2)c(-c2ccccc2)n1 | 60.4 µM (inactive) | 51.2 µM (inactive) |  | 82.4 µM (inactive) | 52.1 µM (inactive) |  |  | 38.6 µM (inactive) | 30.5 µM (inactive) | 50.9 µM (inactive) | 30.5 µM (inactive) | 42.9 µM (inactive) | 56.8 µM (inactive) | > 100 µM (inactive) |  | 24.7 µM (inactive) |  |  |  |
